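Assay format: 96-well plates, 48-hour exposure. Here, GI50 denotes the concentration required for 50% inhibition of growth. At the TGI there is no net growth.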
Columns and labels:
Experiment in all cases: growth of human tumour cells (NCI), 48 h
[1] = test system: UO-31 renal
[2] = test system: DU-145 prostate
[3] = test system: T-47D breast
[4] = test system: SR leukemia

C/C(=C\c1ccccc1)n1c(=O)cc(C)n1C
TGI [1]: > 100 µM | TGI [2]: > 100 µM | TGI [3]: > 100 µM

H-KIFKKFKTIIKKVWRIFGRF-NH2
GI50 [4]: 2.72 µM | TGI [4]: > 100 µM
